The values that follow come from patent publication US6911445B2, “Antidepressant cycloalkylamine derivatives of heterocycle-fused benzodioxans” (Wyeth, priority 2002, dated 2005).

The target of data set [1] is T1, serotonin transporter (Rattus norvegicus, UniProt P31652).
T1 construct: displace ^3H-paroxetine from male rat frontal cortical membranes; from tissue; host or cells: male rat frontal cortex membranes
Description: Displacement of 3H-paroxetine from male rat frontal cortical membranes (serotonin transporter affinity). The format is binding. Particulars: read-out: 5-HT Transporter Affinity Ki. On the technique in general: Displacement assays read how much labelled ligand stays bound in the presence of the test substance.

For data set [2], the target named is T2, human 5HT1A receptors (Homo sapiens, UniProt P08908).
T2 construct: expressed in transfected cells; host or cells: CHO cells
T2 sequence (P08908 1-422): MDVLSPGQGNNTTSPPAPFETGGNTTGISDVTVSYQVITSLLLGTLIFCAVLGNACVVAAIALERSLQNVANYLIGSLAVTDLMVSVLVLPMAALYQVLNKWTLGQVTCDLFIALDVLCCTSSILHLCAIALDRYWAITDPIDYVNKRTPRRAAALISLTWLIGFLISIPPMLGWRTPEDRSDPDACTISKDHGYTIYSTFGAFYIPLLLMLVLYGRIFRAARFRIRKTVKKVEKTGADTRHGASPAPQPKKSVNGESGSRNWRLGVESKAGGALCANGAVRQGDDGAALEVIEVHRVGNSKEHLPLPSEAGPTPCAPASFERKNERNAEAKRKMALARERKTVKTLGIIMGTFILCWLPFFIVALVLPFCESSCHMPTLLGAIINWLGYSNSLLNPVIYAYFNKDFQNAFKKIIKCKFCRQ
Description: Displacement of [3H] 8-OH-DPAT from 5HT1A receptor in stably transfected CHO cells. The class given is binding. Particulars: CHO cells with human 5HT1A receptors, read-out: 5HT1A Receptor Affinity Ki. From the text:
High affinity for the serotonin 5HT1A receptor was established by testing the claimed compound's ability to displace [^3H] 8-OH-DPAT (dipropylamino-tetralin) from the 5HT1A serotonin receptor following a modification of the procedure of Hall, et al., J. Neurochem. 44, 1685 (1985), which utilizes CHO cells stably transfected with human 5HT1A receptors.

The target of data set [3] is T3, cloned human 5HT1A receptors (Homo sapiens, UniProt P08908).
T3 construct: expressed in transfected cells
T3 sequence (P08908 1-422): T2 sequence (P08908 1-422)
Description: 35S-GTPγS binding assay, membranes containing cloned human 5HT1A receptors. The format is biochemical. Particulars: for EC50: given as EC50, increase in 35S-GTPγS binding (agonist), read-out: 5HT1A Function EC50; for Emax: given as Emax, agonist effect, read-out: 5HT1A Function Emax; for IC50: antagonist potency, reversal of the standard agonist 8-OH-DPAT, read-out: 5HT1A Function IC50; for 5HT1A Function (Imax): maximum inhibitory effect, value in parentheses. On the procedure: Antagonist activity at 5HT1A receptors was established by using a ^35S-GTPγS binding assay similar to that used by Lazareno and Birdsall (Br. J. Pharmacol. 109:1120, 1993), in which the test compound's ability to affect the binding of ^35S-GTPγS to membranes containing cloned human 5HT1A receptors was determined. Agonists produce an increase in binding whereas antagonists produce no increase but rather reverse the effects of the standard agonist 8-OH-DPAT. The test compound's maximum inhibitory effect is represented as the Imax, while its potency is defined by the IC50.
For orientation: GTPγS resists hydrolysis and so accumulates on activated G proteins.

Structures can show the parent of a compound that is named as a salt.

As usually defined, the melting point is the temperature, or range, at which the solid turns liquid. Broadly, the Ki is the dissociation constant of the complex between target and ligand, obtained from inhibition or displacement. The term EC50 denotes the concentration at which the effect is half-maximal. As usually defined, the Emax is the maximal effect, on the per cent scale that the assay sets. What is called IC50 is the concentration needed to halve the response being measured.

T1 sequence (P31652 whole entry): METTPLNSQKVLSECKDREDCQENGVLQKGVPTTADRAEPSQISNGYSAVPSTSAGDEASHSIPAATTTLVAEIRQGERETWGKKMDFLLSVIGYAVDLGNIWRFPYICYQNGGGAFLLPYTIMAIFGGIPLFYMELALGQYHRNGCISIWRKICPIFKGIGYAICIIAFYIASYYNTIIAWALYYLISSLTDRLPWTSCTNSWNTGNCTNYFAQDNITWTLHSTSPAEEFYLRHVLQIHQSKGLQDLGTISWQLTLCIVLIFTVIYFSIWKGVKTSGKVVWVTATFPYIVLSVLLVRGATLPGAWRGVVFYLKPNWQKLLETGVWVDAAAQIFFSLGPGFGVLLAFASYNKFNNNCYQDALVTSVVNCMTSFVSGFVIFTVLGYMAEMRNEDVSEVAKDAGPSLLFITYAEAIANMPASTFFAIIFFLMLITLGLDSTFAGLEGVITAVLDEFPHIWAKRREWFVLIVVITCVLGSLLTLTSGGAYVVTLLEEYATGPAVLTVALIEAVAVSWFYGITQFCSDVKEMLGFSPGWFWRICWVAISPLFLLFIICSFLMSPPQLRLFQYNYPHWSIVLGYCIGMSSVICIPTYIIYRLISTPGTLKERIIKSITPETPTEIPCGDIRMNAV

`Cc1ccc2c3c(ccc2n1)OC[C@H](CN[C@H]1CC[C@@H](c2c[nH]c4ccc(F)cc24)C1)O3` (mixture of isomers) (as salt: HCl) (hydrate or solvate) [Example 3, N-[(cis)-3-(5-fluoro-1H-indol-3-yl)cyclopentyl]-N-{[(2S)-8-methyl-2,3-dihydro[1,4]dioxino[2,3-f]quinolin-2-yl]methyl}amine] came in with a melting point of 234 to 235 °C.
As for `Cc1ccc2c3c(ccc2n1)OC[C@H](CN[C@H]1CC[C@@H](c2c[nH]c4ccccc24)C1)O3` (mixture of isomers) [Example 1, N-[(cis)-3-(1H-indol-3-yl)cyclopentyl]-N-{[(2S)-8-methyl-2,3-dihydro[1,4]dioxino[2,3-f]quinolin-2-yl]methyl}amine], in data set [1], the Ki came to 1.25 nM. In addition, the Ki in data set [2] amounted to 2.56 nM. In data set [3], the EC50 came out at 33 nM and the Emax stood at 38%.
As for `Cc1ccc2c3c(ccc2n1)OC[C@H](CN[C@H]1CC[C@@H](c2c[nH]c4ccc(F)cc24)C1)O3` (mixture of isomers) [Example 3, N-[(cis)-3-(5-fluoro-1H-indol-3-yl)cyclopentyl]-N-{[(2S)-8-methyl-2,3-dihydro[1,4]dioxino[2,3-f]quinolin-2-yl]methyl}amine], the Ki in data set [1] turned out to be 0.93 nM. In data set [2], the Ki was found to be 4.73 nM. Moreover, in data set [3], the IC50 is 83 nM and the 5HT1A Function (Imax) amounted to 100%.
With `Cc1ccc2c3c(ccc2n1)OC[C@H](CN(C)[C@H]1CC[C@@H](c2c[nH]c4ccc(F)cc24)C1)O3` (mixture of isomers) [Example 9, N-[(cis)-3-(5-fluoro-1H-indol-3-yl)cyclopentyl]-N-methyl-N-{[(2S)-8-methyl-2,3-dihydro[1,4]dioxino[2,3-f]quinolin-2-yl]methyl}amine], the inhibition constant (Ki) in data set [1] worked out at 0.84 nM; in data set [2], 5.01 nM. In data set [3], the IC50 amounted to 242 nM. Also, in data set [3], the 5HT1A Function (Imax) was found to be 100%.
For `Cc1ccc2c3c(ccc2n1)OC[C@H](CN(C)[C@@H]1CC[C@H](c2c[nH]c4ccc(F)cc24)C1)O3` (relative stereo) (as salt: fumarate) [Example 13, N-[(1R*,3S*)-3-(5-fluoro-1H-indol-3-yl)cyclopentyl]-N-methyl-N-{[(2S)-8-methyl-2,3-dihydro[1,4]dioxino[2,3-f]quinolin-2-yl]methyl}amine], the melting point is 198 to 199 °C (dec.).
Take `Cc1ccc2c3c(ccc2n1)OC[C@H](CN(C)[C@@H]1CC[C@H](c2c[nH]c4ccc(F)cc24)C1)O3` (relative stereo) [Example 13, N-[(1R*,3S*)-3-(5-fluoro-1H-indol-3-yl)cyclopentyl]-N-methyl-N-{[(2S)-8-methyl-2,3-dihydro[1,4]dioxino[2,3-f]quinolin-2-yl]methyl}amine]: the inhibition constant Ki in data set [1] worked out at 5.45 nM. Besides, in data set [2], the Ki was found to be 18.8 nM. Moreover, in data set [3], the IC50 was 494 nM and the 5HT1A Function (Imax) stood at 100%.
Turning to `Cc1ccc2c3c(ccc2n1)OC[C@H](CN[C@@H]1CC[C@H](c2c[nH]c4ccc(F)cc24)C1)O3` (single isomer, unassigned) [Example 3-Isomer A, N-[(1R*,3S*)-3-(5-fluoro-1H-indol-3-yl)cyclopentyl]-N-{[(2S)-8-methyl-2,3-dihydro[1,4]dioxino[2,3-f]quinolin-2-yl]methyl}amine], the Ki was determined as 0.38 nM in data set [1] and 8.73 nM in data set [2]. Further, the IC50 in data set [3] was found to be 69 nM. The 5HT1A Function (Imax) in data set [3] is 82%.
In the case of `Cc1ccc2c3c(ccc2n1)OCC(CNC1CCC(c2c[nH]c4ccc(F)cc24)C1)O3` (single isomer, unassigned) [Example 3-Isomer B, N-[(1S*,3R*)-3-(5-fluoro-1H-indol-3-yl)cyclopentyl]-N-{[(2S)-8-methyl-2,3-dihydror[1,4]dioxino[2,3-f]quinolin-2-yl]methyl}amine], the values for the Ki in data set [1] and in data set [2] were 0.33 nM and 2.03 nM, respectively. In data set [3], the IC50 came to 34 nM. In addition, the 5HT1A Function (Imax) in data set [3] stood at 97%.
Taken in the same sequence, the figures for `Cc1ccc2c3c(ccc2n1)OC[C@H](CN[C@H]1CC[C@H](c2c[nH]c4ccc(F)cc24)C1)O3` (single isomer, unassigned) [Example 4-Isomer A, N-[(1S*,3S*)-3-(5-fluoro-1H-indol-3-yl)cyclopentyl]-N-{[(2S)-8-methyl-2,3-dihydro[1,4]dioxino[2,3-f]quinolin-2-yl]methyl}amine] were 0.54 nM, 7.72 nM, 60 nM and 56%.
Regarding `Cc1ccc2c3c(ccc2n1)OC[C@H](CN[C@@H]1CC[C@@H](c2c[nH]c4ccc(F)cc24)C1)O3` (single isomer, unassigned) [Example 4-Isomer B, N-[(1R*,3R*)-3-(5-fluoro-1H-indol-3-yl)cyclopentyl]-N-{[(2S)-8-methyl-2,3-dihydro[1,4]dioxino[2,3-f]quinolin-2-yl]methyl}amine], the Ki in data set [1] was 0.67 nM. For the same molecule, in data set [2], the Ki turned out to be 26.5 nM. In data set [3], the concentration for half-maximal inhibition (IC50) was 1440 nM and the 5HT1A Function (Imax) turned out to be 100%.
For the molecule `Cc1ccc2c3c(ccc2n1)OCC(CNC1CCC(c2cn(C)c4ccc(F)cc24)C1)O3` (single isomer, unassigned) [Example 5-Isomer A, N-[(1R*,3S*)-3-(5-fluoro-1-methyl-1H-indol-3-yl)cyclopentyl]-N-{](2S)-8-methyl-2,3-dihydro[1,41]dioxino[2,3-f]quinoli-2-yl]methyl}amine], the Ki in data set [1] stood at 2.11 nM. Further, the Ki in data set [2] stood at 12.5 nM. Further, in data set [3], the IC50 stood at 190 nM and the 5HT1A Function (Imax) came to 88%.
`Cc1ccc2c3c(ccc2n1)OCC(CNC1CCC(c2cn(C)c4ccc(F)cc24)C1)O3` (single isomer, unassigned) [Example 5-Isomer B, N-[(1S*,3R*)-3-(5-fluoro-1-methyl-1H-indol-3-yl)cyclopentyl]-N-{[(2S)-8-methyl-2,3-dihydro[1,4]dioxino[2,3-f]quinoli-2-yl]methyl}amine]: the Ki in data set [1] turned out to be 3 nM. The Ki in data set [2] worked out at 1.91 nM. For the same molecule, in data set [3], the IC50 was 158 nM and the 5HT1A Function (Imax) worked out at 97%.
`Cc1ccc2c3c(ccc2n1)OCC(CNC1CCC(c2cn(C)c4ccc(F)cc24)C1)O3` (single isomer, unassigned) [Example 5]: the Ki turned out to be 3.69 nM in data set [1] and 5.35 nM in data set [2]. Further, the IC50 in data set [3] was 142 nM. Besides, the 5HT1A Function (Imax) in data set [3] stood at 69%.
The like results for `Cc1ccc2c3c(ccc2n1)OCC(CNC1CCC(c2cn(C)c4ccc(F)cc24)C1)O3` (single isomer, unassigned) [Example 6] were, in that order, 1.67 nM, 20.3 nM, 228 nM and 55%.
Take `Cc1ccc2c3c(ccc2n1)OCC(CNC1CCC(c2c[nH]c4ccccc24)C1)O3` [Example 2, N-[(trans)-3-(1H-indol-3-yl)cyclopentyl]-N-{[(2S)-8-methyl-2,3-dihydro[1,4]dioxino[2,3-f]quinoli-2-yl]methyl}amine]: the Ki in data set [1] stood at 1.69 nM; in data set [2], 12.8 nM.
For the molecule `Cc1ccc2c3c(ccc2n1)OCC(CNC1CCC(c2c[nH]c4ccc(F)cc24)C1)O3` [Example 4, N-[(trans)-3-(5-fluoro-1H-indol-3-yl)cyclopentyl]-N-{[(2S)-8-methyl-2,3-dihydro[1,4]dioxino[2,3-f]quinoli-2-yl]methyl}amine], in data set [1], the Ki amounted to 0.62 nM. In data set [2], the Ki worked out at 9.12 nM. In data set [3], the 50% inhibitory concentration (IC50) was 44 nM and the 5HT1A Function (Imax) stood at 84%.
With `Cc1ccc2c3c(ccc2n1)OC[C@H](CN[C@H]1CC[C@@H](c2c[nH]c4ccc(F)cc42)CC1)O3` [Example 7, (cis)-N-[4-(5-fluoro-1H-indol-3-yl)cyclohexyl]-N-{[(2S)-8-methyl-2,3-dihydro[1,4]dioxino[2,3-f]quinolin-2-yl]methyl}amine], the Ki was determined as 19 nM in data set [1] and 51.7 nM in data set [2].
As to `Cc1ccc2c3c(ccc2n1)OC[C@H](CN[C@H]1CC[C@H](c2c[nH]c4ccc(F)cc42)CC1)O3` [Example 8, (trans)-N-[4-(5-fluoro-1H-indol-3-yl)cyclohexyl]-N-{[(2S)-8-methyl-2,3-dihydro[1,4]dioxino[2,3-f]quinolin-2-yl]methyl}amine], in data set [1], the Ki was found to be 4.16 nM. Further, the Ki in data set [2] was determined as 14.6 nM. Moreover, in data set [3], the EC50 is 66 nM and the Emax turned out to be 95%.
